Patent US20210238698A1, “METHODS OF DIAGNOSING AND TREATING CANCER PATIENTS EXPRESSING HIGH LEVELS OF TGF-B RESPONSE SIGNATURE” (MEDPACTO, INC., priority 2018, published 2021)

Tested on: patients with advanced solid tumors
Test: Phase I trial of single administration of Vactosertib, tumor assessment (anti-tumor activity)
Type: in vivo, human
Description: A ‘responder’ refers to a Patient whose best overall response on treatment was stable disease (SD) or greater, and a ‘non-responder’ refers to a patient whose best overall response on treatment was progression on disease (PD) or worse. The unit for all data of gene expression is TPM (Transcripts Per Kilobase Million). The CD8A gene is implicated in playing an important role in the immune response. The cytolytic score is used to assess anticancer immunity. […]
In particular, the F-TBRS and the cytolytic score in cancer of responders and non-responders at the Phase I trial of single administration of Vactosertib (the compound represented by Formula II; TEW-7197) were analyzed and the results were shown in FIG. 3.
In addition, the EMT/F-TBRS expression distribution from the TCGA database of bladder cancer was analyzed and the results are shown in FIG. 4. […]

## Cc1cccc(-c2[nH]c(CNc3ccccc3F)nc2-c2ccc3ncnn3c2)n1 [Vactosertib, N-((4-([1,2,4]triazolo[1,5-a]pyridin-6-yl)-5-(6-methylpyridin-2-yl)-1H-imidazol-2-yl)methyl)-2-fluoroaniline]
Phase I, higher doses (≥140 mg, qd)
  patients who achieved SD (stable disease, responder): seven
One patient with bladder cancer at the Phase I trial, high EMT/F-TBRS expression
  tumor shrinkage: −25%
